Where two headings read alike, the source gives them in different places. Blank lines part the entries; values can stand above or below the molecule they belong to.
Tests used:
[1] = target: T1, acyl-CoA synthetase long-chain family member 3 (ACSL3) (Homo sapiens, UniProt O95573); experiment: microscale thermophoresis; type: binding
[2] = target: T1, acyl-CoA synthetase long-chain family member 3 (ACSL3); experiment: microscale thermophoresis; type: binding; remark: listed apart in the source
[3] = target: T1, acyl-CoA synthetase long-chain family member 3 (ACSL3); experiment: LC-MS of OA-CoA formed by recombinant ACSL3; type: biochemical
[4] = target: T1, acyl-CoA synthetase long-chain family member 3 (ACSL3); experiment: microscale thermophoresis; type: binding; remark: listed apart in the source

T1 sequence (O95573 whole entry): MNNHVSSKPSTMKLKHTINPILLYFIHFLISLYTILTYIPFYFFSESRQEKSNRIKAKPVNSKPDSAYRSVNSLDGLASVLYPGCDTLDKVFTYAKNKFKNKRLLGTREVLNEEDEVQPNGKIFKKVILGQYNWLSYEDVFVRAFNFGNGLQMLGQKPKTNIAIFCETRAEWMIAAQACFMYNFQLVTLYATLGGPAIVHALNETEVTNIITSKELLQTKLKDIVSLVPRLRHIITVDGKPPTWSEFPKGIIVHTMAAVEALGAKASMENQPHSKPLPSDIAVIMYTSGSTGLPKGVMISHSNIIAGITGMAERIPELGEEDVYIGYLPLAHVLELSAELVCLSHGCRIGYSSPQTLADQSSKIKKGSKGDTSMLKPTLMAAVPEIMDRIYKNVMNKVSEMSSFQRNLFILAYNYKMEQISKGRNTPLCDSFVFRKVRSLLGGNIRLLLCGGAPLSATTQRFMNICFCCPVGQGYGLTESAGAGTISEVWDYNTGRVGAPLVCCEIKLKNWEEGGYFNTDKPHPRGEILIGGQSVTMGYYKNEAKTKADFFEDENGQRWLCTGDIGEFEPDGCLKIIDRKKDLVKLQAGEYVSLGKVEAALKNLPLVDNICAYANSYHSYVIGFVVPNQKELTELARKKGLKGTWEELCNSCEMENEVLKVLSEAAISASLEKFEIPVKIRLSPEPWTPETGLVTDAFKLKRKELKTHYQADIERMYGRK

- Kd [1]: 12800 nM
SMILES: CC1=C(/C=C/C(C)=C/C=C/C(C)=C/C(=O)O)C(C)(C)CCC1 [ATRA, all-trans retinoic acid]

- Kd [2]: 1280 nM
SMILES: CNC(=O)/C=C(C)/C=C/C=C(C)/C=C/C1=C(C)CCCC1(C)C [D3, (2E,4E,6E,8E)-N,3,7-trimethyl-9-(2,6,6-trimethylcyclohex-1-en-1-yl)nona-2,4,6,8-tetraenamide]

SMILES: CCCCCCCC/C=C\CCCCCCCC(=O)O [OA, oleic acid]
- LC-MS of OA-CoA formed by recombinant ACSL3 [3]: VA analogues promoted acylation reaction with OA as substrate in the presence of ACSL3

- Kd [4]: 1850 nM
SMILES: CC1=C(/C=C/C(C)=C/C=C/C(C)=C/CO)C(C)(C)CCC1 [VA, vitamin A]
